Test results published in ChEMBL document CHEMBL1156790, “Synthesis and structure-activity relationships of antitubercular 2-nitroimidazooxazines bearing heterocyclic side chains” (J Med Chem, 2010).
≈ marks a conversion by molar mass, not a printed value.

Tests used:
[1] = system: Mycobacterium tuberculosis; experiment: Antimycobacterial activity against Mycobacterium tuberculosis H37Rv after 16 to 24 hrs by microplate alamar blue assay; format: functional
Vero = experiment: Cytotoxicity against african green monkey Vero cells after 72 hrs by tetrazolium dye assay; format: cell-based; details: Chlorocebus sabaeus
[2] = system: Mycobacterium tuberculosis; experiment: Antimycobacterial activity against Mycobacterium tuberculosis H37Rv expressing pFCA-luxAB after 10 days by luminescence-based low-oxygen recovery assay; format: functional; details: 240 h
[3] = Solubility in water at pH 7 at 20 degC; format: physicochemical
[4] = system: Mycobacterium tuberculosis; experiment: Antitubercular effect in Mycobacterium tuberculosis infected BALB/c mouse assessed as CFU reduction at 100 mg/kg, po administered 5 days a week for 3 weeks relative to PA-824; format: functional
[5] = Metabolic stability in human liver microsomes after 1 hr at 37 degC; format: ADME, Microsome; details: liver microsomes, read-out: Stability
[6] = Metabolic stability in mouse liver microsomes after 1 hr at 37 degC; format: ADME, Microsome; details: liver microsomes, read-out: Stability

In the case of `N#Cc1ccc(-c2cc(CO[C@@H]3COc4nc([N+](=O)[O-])cn4C3)on2)cc1`, the MIC [1] is reported as 1.4 µM (≈ 0.514 µg/mL), the IC50 (Vero) is reported as > 128 µM and the MIC [2] is reported as 6.2 µM (≈ 2.28 µg/mL).

In the case of `O=[N+]([O-])c1cn2c(n1)OC[C@@H](OCc1csc(-c3ccc(C(F)(F)F)cc3)n1)C2`, the MIC [1] is reported as 1.4 µM (≈ 0.597 µg/mL), the IC50 (Vero) is reported as > 128 µM and the solubility [3] is reported as 2.8 µg/mL (≈ 6.57 µM). It also gave an MIC [2] of 3 µM (≈ 1.28 µg/mL).

With `O=[N+]([O-])c1cn2c(n1)OC[C@@H](OCc1cc(-c3ccc(C(F)(F)F)cc3)no1)C2` the MIC [1] was 0.17 µM (≈ 0.0698 µg/mL), the IC50 (Vero) was > 128 µM and the solubility [3] was 0.5 µg/mL (≈ 1.22 µM). It also gave an MIC [2] of 2.6 µM (≈ 1.07 µg/mL).

With `O=[N+]([O-])c1cn2c(n1)OC[C@@H](OCc1cnn(-c3ccc(OC(F)(F)F)cc3)n1)C2` the MIC [1] was 0.03 µM (≈ 0.0128 µg/mL), the IC50 (Vero) was > 128 µM and the MIC [2] was 1.6 µM (≈ 0.682 µg/mL).

In the case of `O=[N+]([O-])c1cn2c(n1)OC[C@@H](OCc1ccc(-c3cncc(F)c3)s1)C2`, the MIC [1] is reported as 0.87 µM (≈ 0.327 µg/mL), the IC50 (Vero) is reported as > 128 µM and the MIC [2] is reported as 2.3 µM (≈ 0.866 µg/mL).

In the case of `COc1ccc(-c2nc(CO[C@@H]3COc4nc([N+](=O)[O-])cn4C3)cs2)cn1`, the MIC [1] is reported as 1.4 µM (≈ 0.545 µg/mL), the IC50 (Vero) is reported as > 128 µM and the MIC [2] is reported as 4.5 µM (≈ 1.75 µg/mL).

With `O=[N+]([O-])c1cn2c(n1)OC[C@@H](OCc1cn(-c3ccc(OC(F)(F)F)cc3)nn1)C2` the “fold change (FC)” value [4] was 0.34, the MIC [1] was 0.075 µM (≈ 0.032 µg/mL) and the IC50 (Vero) was > 128 µM. It also gave a remaining at 1 h [5] of 99%, a remaining at 1 h [6] of 74% and an MIC [2] of 3.3 µM (≈ 1.41 µg/mL).

In the case of `O=[N+]([O-])c1cn2c(n1)OC[C@@H](OCc1ccc(-c3ccc(OC(F)F)cc3)s1)C2`, the MIC [1] is reported as 0.86 µM (≈ 0.364 µg/mL), the IC50 (Vero) is reported as > 128 µM and the MIC [2] is reported as 0.58 µM (≈ 0.246 µg/mL).

In the case of `Cn1nc(-c2ccc(C(F)(F)F)cc2)cc1CO[C@@H]1COc2nc([N+](=O)[O-])cn2C1`, the MIC [1] is reported as 0.06 µM (≈ 0.0254 µg/mL), the IC50 (Vero) is reported as > 128 µM and the MIC [2] is reported as 4.1 µM (≈ 1.74 µg/mL).

For `Cn1c(CO[C@@H]2COc3nc([N+](=O)[O-])cn3C2)cnc1-c1ccc(OC(F)(F)F)cc1`, the MIC [1] was 1.1 µM (≈ 0.483 µg/mL), the IC50 (Vero) was > 128 µM and the MIC [2] was 7.4 µM (≈ 3.25 µg/mL).

In the case of `O=[N+]([O-])c1cn2c(n1)OC[C@@H](OCc1nnc(-c3ccc(F)cc3)o1)C2`, the MIC [1] is reported as 2.4 µM (≈ 0.867 µg/mL), the IC50 (Vero) is reported as > 128 µM and the solubility [3] is reported as 108 µg/mL (≈ 299 µM). The MIC [2] was 17 µM (≈ 6.14 µg/mL).

With `COc1ccc(-c2cc(CO[C@@H]3COc4nc([N+](=O)[O-])cn4C3)on2)cn1` the MIC [1] was 2 µM (≈ 0.747 µg/mL), the IC50 (Vero) was > 128 µM and the MIC [2] was 4.1 µM (≈ 1.53 µg/mL).

In the case of `O=[N+]([O-])c1cn2c(n1)OC[C@@H](OCc1cnn(-c3ccc(C(F)(F)F)cc3)n1)C2`, the MIC [1] is reported as 0.05 µM (≈ 0.0205 µg/mL), the IC50 (Vero) is reported as > 128 µM and the solubility [3] is reported as 1 µg/mL (≈ 2.44 µM). For the same molecule, the MIC [2] was 2.1 µM (≈ 0.862 µg/mL).

With `O=[N+]([O-])c1cn2c(n1)OC[C@@H](OCc1cnn(-c3ccc(C(F)(F)F)cc3)c1)C2` the MIC [1] was 0.54 µM (≈ 0.221 µg/mL), the IC50 (Vero) was > 128 µM and the solubility [3] was 4.9 µg/mL (≈ 12 µM). The MIC [2] was 2.3 µM (≈ 0.941 µg/mL).

With `O=[N+]([O-])c1cn2c(n1)OC[C@@H](OCc1csc(-c3ccc(F)cc3)n1)C2` the MIC [1] was 0.35 µM (≈ 0.132 µg/mL), the IC50 (Vero) was > 128 µM and the MIC [2] was 2.8 µM (≈ 1.05 µg/mL).

With `COc1ccc(-c2ccc(CO[C@@H]3COc4nc([N+](=O)[O-])cn4C3)s2)cn1` the MIC [1] was 0.22 µM (≈ 0.0854 µg/mL), the IC50 (Vero) was > 128 µM and the solubility [3] was 2.2 µg/mL (≈ 5.66 µM). It also gave an MIC [2] of 4.5 µM (≈ 1.75 µg/mL).

In the case of `O=[N+]([O-])c1cn2c(n1)OC[C@@H](OCc1cnn(-c3ccc(F)cc3)c1)C2`, the MIC [1] is reported as 0.8 µM (≈ 0.287 µg/mL), the IC50 (Vero) is reported as > 128 µM and the MIC [2] is reported as 3.9 µM (≈ 1.4 µg/mL).

In the case of `O=[N+]([O-])c1cn2c(n1)OC[C@@H](OCc1cnn(-c3ccc(F)cc3)n1)C2`, the MIC [1] is reported as 0.17 µM (≈ 0.0613 µg/mL), the IC50 (Vero) is reported as > 128 µM and the MIC [2] is reported as 1.4 µM (≈ 0.504 µg/mL).

In the case of `Cn1c(CO[C@@H]2COc3nc([N+](=O)[O-])cn3C2)cnc1-c1ccc(F)cc1`, the MIC [1] is reported as 1.9 µM (≈ 0.709 µg/mL), the IC50 (Vero) is reported as > 128 µM and the MIC [2] is reported as 31 µM (≈ 11.6 µg/mL).

With `O=[N+]([O-])c1cn2c(n1)OC[C@@H](OCc1ccn(-c3ccc(C(F)(F)F)cc3)n1)C2` the MIC [1] was 0.045 µM (≈ 0.0184 µg/mL), the IC50 (Vero) was > 128 µM and the solubility [3] was 5.4 µg/mL (≈ 13.2 µM). For the same molecule, the MIC [2] was 1 µM (≈ 0.409 µg/mL).

With `O=[N+]([O-])c1cn2c(n1)OC[C@@H](OCc1ccc(-c3ccc(C(F)(F)F)nc3)s1)C2` the “fold change (FC)” value [4] was 2.3, the MIC [1] was 0.05 µM (≈ 0.0213 µg/mL) and the IC50 (Vero) was > 128 µM. The remaining at 1 h [5] was 85%, the solubility [3] was 8.9 µg/mL (≈ 20.9 µM) and the remaining at 1 h [6] was 77%. For the same molecule, the MIC [2] was 4.4 µM (≈ 1.88 µg/mL).

For `O=[N+]([O-])c1cn2c(n1)OC[C@@H](OCc1cc(-c3ccc(F)cc3)no1)C2`, the MIC [1] was 1.5 µM (≈ 0.54 µg/mL), the IC50 (Vero) was > 128 µM and the MIC [2] was 1.9 µM (≈ 0.685 µg/mL).

With `O=[N+]([O-])c1cn2c(n1)OC[C@@H](OCc1cnn(-c3ccc(OC(F)(F)F)cc3)c1)C2` the “fold change (FC)” value [4] was 1.5, the MIC [1] was 0.15 µM (≈ 0.0638 µg/mL) and the IC50 (Vero) was > 128 µM. The remaining at 1 h [5] was 87%, the remaining at 1 h [6] was 64% and the MIC [2] was 1.8 µM (≈ 0.766 µg/mL).

For `COc1ccc(-c2nc(CO[C@@H]3COc4nc([N+](=O)[O-])cn4C3)cs2)cc1F`, the MIC [1] was 0.2 µM (≈ 0.0813 µg/mL), the IC50 (Vero) was > 128 µM and the MIC [2] was 1.7 µM (≈ 0.691 µg/mL).

For `O=[N+]([O-])c1cn2c(n1)OC[C@@H](OCc1ccc(-c3ccc(F)cc3)s1)C2`, the MIC [1] was 0.05 µM (≈ 0.0188 µg/mL), the IC50 (Vero) was > 128 µM and the MIC [2] was 1.9 µM (≈ 0.713 µg/mL).

With `COc1ccc(-c2ccc(CO[C@@H]3COc4nc([N+](=O)[O-])cn4C3)s2)cc1F` the MIC [1] was 0.06 µM (≈ 0.0243 µg/mL), the IC50 (Vero) was > 128 µM and the MIC [2] was 1 µM (≈ 0.405 µg/mL).

In the case of `COc1ccc(-c2cc(CO[C@@H]3COc4nc([N+](=O)[O-])cn4C3)on2)cc1F`, the MIC [1] is reported as 1.1 µM (≈ 0.429 µg/mL), the IC50 (Vero) is reported as > 128 µM and the MIC [2] is reported as 2 µM (≈ 0.781 µg/mL).

With `O=[N+]([O-])c1cn2c(n1)OC[C@@H](OCc1csc(-c3ccc(OC(F)(F)F)cc3)n1)C2` the MIC [1] was 1.2 µM (≈ 0.531 µg/mL), the IC50 (Vero) was > 128 µM and the MIC [2] was 1.5 µM (≈ 0.664 µg/mL).
